Measured values published in patent US10752581B2, “4-((2-hydroxy-3-methoxybenzyl)amino)benzenesulfonamide derivatives as potent and selective inhibitors of 12-lipoxygenase” (Eastern Virginia Medical School, priority 2013, dated 2020).
“Also recorded” adds a separate entry of the source. Marks after values point to notes of the source that are not given here.

Columns and labels:
[1] = system: FcγRIIa-stimulated platelets; test: Calcium mobilization after FcγRIIa cross-linking; type: cell-based, human; details: ML355 (20 μM); compared to DMSO treated platelets
Protocol: (§1) FcγRIIa-mediated platelet activation: FcγRIIa-mediated platelet activation was initiated by two distinct models; either 1) FcγRIIa antibody cross-linking or 2) CD9 monoclonal antibody stimulation. To cross-link FcγRIIa, washed platelets were incubated with IV.3, an FcγRIIa mouse monoclonal antibody, for one minute followed by the addition of a goat anti-mouse (GAM) IgG antibody to cross-link FcγRIIa. The concentration of FcγRIIa cross-linking antibodies used for each experiment is indicated in the text. Alternatively, washed human platelets were stimulated with an anti-CD9 monoclonal antibody to activate FcγRIIa mediated signaling. Due to inter-individual variability in anti-CD9 response, a range of anti-CD9 concentration (0.25-1 μg/ml) was used to achieve an aggregation of EC80. In studies using the 12-LOX inhibitor (ML355), washed platelets were incubated with either ML355 (20 μM), or DMSO (vehicle control) for 15 minutes prior to FcγRIIa stimulation.
Calcium mobilization: Intracellular calcium release was measured as previously described. […] Platelets were stimulated by FcγRIIa antibody cross-linking and fluorescence intensity was measured in real-time by flow cytometry. Data is reported as the fold change in the fluorescence intensity comparing maximum fluorescence intensity relative to fluorescence intensity prior to platelet stimulation.

Caco-2 = Caco-2 assay permeability; type: in vitro ADME; details: A→B
[2] = system: FcγRIIa-stimulated platelets; test: Rap1 activation after FcγRIIa stimulation; type: cell-based, human; details: ML355 pre-treatment
From the text: (§2) Preparation of washed human platelets: Prior to blood collection written informed consent was obtained from all volunteers. Washed platelets were isolated from the blood of healthy volunteers as previously described (14). Washed platelets were resuspended in tyrodes buffer at 3.0×10^8 platelets/mL unless otherwise indicated.
as §1, with “FcγRIIa stimulation. […]” for “FcγRIIa stimulation.”

[3] = PBS buffer (pH 7.4) solubility; type: physicochemical; details: PBS buffer, pH 7.4, aqueous buffer
washed human platelets [4] = test: PAR4-AP-induced calcium mobilization; type: cell-based; details: 200 μM PAR4-AP; increasing concentrations
Protocol: Blood was centrifuged at 200 g for 13 min at room temperature.

[5] = system: FcγRIIa-stimulated platelets; test: αIIbβ3 activation after FcγRIIa stimulation; type: cell-based, human; details: ML355 pre-treatment; IV.3 + GAM
From the text: as §2
as §1, with “Due to inter-individual variability in anti-CD9 response, a range of anti-CD9 concentration (0.25-1 μg/ml) was used to achieve an aggregation of EC80. In studies using the 12-LOX inhibitor (ML355), washed platelets were incubated with either ML355 (20 μM), or DMSO (vehicle control) for 15 minutes prior to FcγRIIa stimulation.” left out
Alpha granule release and αIIbβ3 activation: Prior to stimulation, washed platelets were pre-incubated with a either FITC-conjugated P-selectin antibody or FITC-conjugated PAC-1, an antibody specific for the active conformation of αIIb3. […] Fluorescence intensity was measured by flow cytometry. Results are reported as mean fluorescence intensity.

[6] = system: FcγRIIa-stimulated platelets; test: PLCγ2 phosphorylation after FcγRIIa cross-linking; type: cell-based, human; details: ML355 (20 μM); 15 and 30 seconds
Protocol: as §1
PLCγ2 phosphorylation: Washed human platelets were adjusted to 5×10^8 platelets/mL and stimulated in an aggregometer by antibody cross-linking of FcγRIIa and lysed at designated times with 5× reducing buffer to stop the reaction. Samples were separated on a 7.5% SDS-PAGE gel. Antibodies to PLCy2 and phospho-Y759 PLCy2, a marker of PLCy2 activation, were used to evaluate the relative levels of total and active PLCy2, respectively.

[7] = system: FcγRIIa-stimulated platelets; test: Dense granule secretion (ATP release) after FcγRIIa stimulation; type: cell-based, human; details: compared with DMSO treated platelets
From the text: as §2
as §1, with “In studies using the 12-LOX inhibitor (ML355), washed platelets were incubated with either ML355 (20 μM), or DMSO (vehicle control) for 15 minutes prior to FcγRIIa stimulation.” left out
Dense granule secretion: ATP release was measured from washed platelets as surrogate for dense granule secretion. […] Platelets were stimulated with FcγRII antibody cross-linking under stirring conditions and fluorescence was measured in real-time using a lumi-aggregometer.

[8] = system: human primary donor islets; test: Human Islet (12-HETE Inhibition) Assay; type: cell-based; details: 10 μM
[9] = Microsomal stability (mouse); type: in vitro ADME
washed human platelets [10] = test: FcγRIIa-mediated platelet aggregation; type: cell-based; details: ML355 20 μM, 15 minutes; anti-CD9 stimulation or IV.3 + GAM cross-linking
From the text: as §2
as §1, with “In studies using the 12-LOX inhibitor (ML355), washed platelets were incubated with either ML355 (20 μM), or DMSO (vehicle control) for 15 minutes prior to FcγRIIa stimulation.” left out
Platelet aggregation: Platelet aggregation was measured with a lumi-aggregometer (Chronolog Corp, Model 700D) under stirring conditions at 37° C.

[11] = system: FcγRIIa-stimulated platelets; test: FcγRIIa phosphorylation (immunoprecipitation, Western blot); type: cell-based, human; details: ML355 (20 μM); IV.3+GAM
Protocol: FIGS. 15A-15B show the role of 12-LOX in regulating the FcγRIIa signaling complex. Washed human platelets were pre-treated with ML355 (20 μM) or vehicle control prior to IV.3 and GAM stimulation. (FIG. 15A) Immunoprecipitation of FcγRIIa at 15, 30, and 60 seconds post crosslinking and measured for phosphorylation via Western blot. (FIG. 15B) Platelets were lysed following FcγRIIa cross-linking in the presence of ML355 or DMSO were immunoblotted for active (pY323) and total Syk.
To investigate whether 12-LOX directly regulated FcγRIIa phosphorylation, FcγRIIa was immunoprecipitated from IV.3+GAM-stimulated platelets treated with ML355 or DMSO and immunoblotted for phosphorylation of FcγRIIa.
as §1, with “Due to inter-individual variability in anti-CD9 response, a range of anti-CD9 concentration (0.25-1 μg/ml) was used to achieve an aggregation of EC80. In studies using the 12-LOX inhibitor (ML355), washed platelets were incubated with either ML355 (20 μM), or DMSO (vehicle control) for 15 minutes prior to FcγRIIa stimulation.” left out

[12] = male, CD1, mouse, in vivo, intravenous, 3 mpk
[13] = male, CD1, mouse, in vivo, iv, 3 mg/kg
[14] = male, CD1, mouse, in vivo, po, 30 mg/kg

COc1cccc(CNc2ccc(S(=O)(=O)Nc3nc4ccccc4s3)cc2)c1O [Compound 35, N-(benzo[d]thiazol-2-yl)-4-((2-hydroxy-3-methoxybenzyl)amino)benzenesulfonamide]
intracellular Ca2+ release [1]: decrease in intracellular Ca^2+ | permeability (1 × 10^−6 cm/s) (Caco-2): 1.5 (A→B)^a 1 × 10^−6 cm/s | time remaining over IC50 value (In Vivo PK (Mouse); 30 mpk dosing): over 12 hours | % F (In Vivo PK (Mouse); PO, 30 mpk): 19.8% | Vd (In Vivo PK (Mouse); [12]): 0.55 L/kg | clearance (In Vivo PK (Mouse); [12]): 3.4 mL/min/kg | AUC(0-inf) (In Vivo PK (Mouse); [13]): 34 µM·h | Cmax (In Vivo PK (Mouse); [13]): 112 µM | Vd (In Vivo PK (Mouse); [13]): 0.55 L/kg | clearance (In Vivo PK (Mouse); [13]): 3.4 mL/min/kg | half-life (In Vivo PK (Mouse); [13]): 3.4 h | AUC(0-inf) (In Vivo PK (Mouse); [14]): 67 µM·h | Cmax (In Vivo PK (Mouse); [14]): 38 µM | bioavailability (In Vivo PK (Mouse); [14]): ~20% | half-life (In Vivo PK (Mouse); [14]): 2.9 h | Rap1 activation [2]: failed to activate Rap1 | solubility [3]: < 5 µg/mL | PAR4-AP-induced calcium mobilization (in words) (washed human platelets [4]): Calcium mobilization was decreased | αIIbβ3 activation [5]: significant attenuated along multiple signaling steps | PLCγ2 phosphorylation [6]: attenuated PLCy2 phosphorylation at 15 and 30 seconds | ATP release (dense granule secretion) [7]: significant decrease in ATP release | AA/IONO-induced 12-HETE production in human islets [8]: significant inhibition of AA/IONO-induced 12-HETE production | Microsomal stability T1/2 (min) ([9]; in the presence of NADPH): >300^a min | half-life ([9]; microsomes, read-out: microsomal stability T1/2): > 5 h | FcγRIIa-mediated platelet aggregation (washed human platelets [10]): attenuated FcγRIIa-mediated platelet aggregation; also recorded: significantly attenuated aggregation | FcγRIIa phosphorylation [11]: No difference in FcγRIIa phosphorylation
